Patent US20140323500A1, “NADPH OXIDASE 4 INHIBITORS AND USE THEREOF” (GENKYOTEX SA, priority 2011, published 2014)

How the values were obtained:
[1] = target: T1, human Nox4 (Homo sapiens, UniProt Q9NPH5); experiment: ROS production by membranes expressing human Nox4, cell-free Amplex Red assay; type: biochemical; settings: cell-free membranes, Amplex Red; Cheng-Prusoff; average of at least three experiments in triplicate; read-out: Ki hNox4
T1 construct: expressed in transfected cells; host or cells: T-REx-293 (hNOX4 T-REx-293), tetracycline-induced; membrane fraction
T1 sequence (Q9NPH5 1-578): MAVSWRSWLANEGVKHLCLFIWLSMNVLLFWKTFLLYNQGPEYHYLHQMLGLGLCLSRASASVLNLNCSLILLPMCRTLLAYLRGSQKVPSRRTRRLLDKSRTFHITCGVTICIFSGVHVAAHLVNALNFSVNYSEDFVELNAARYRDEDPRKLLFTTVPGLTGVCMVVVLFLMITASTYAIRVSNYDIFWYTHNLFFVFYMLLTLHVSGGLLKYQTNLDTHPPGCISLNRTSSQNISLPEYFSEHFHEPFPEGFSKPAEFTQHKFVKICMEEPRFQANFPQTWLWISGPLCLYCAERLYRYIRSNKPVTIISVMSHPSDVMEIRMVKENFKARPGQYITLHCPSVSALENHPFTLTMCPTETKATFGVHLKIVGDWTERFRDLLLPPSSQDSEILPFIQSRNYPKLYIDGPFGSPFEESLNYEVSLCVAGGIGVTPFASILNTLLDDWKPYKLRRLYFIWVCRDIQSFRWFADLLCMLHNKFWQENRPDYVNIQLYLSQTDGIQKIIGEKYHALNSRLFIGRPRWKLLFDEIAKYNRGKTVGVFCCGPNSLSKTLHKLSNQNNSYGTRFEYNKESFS
T1 sequence (P13498 2-195 partner limits assumed): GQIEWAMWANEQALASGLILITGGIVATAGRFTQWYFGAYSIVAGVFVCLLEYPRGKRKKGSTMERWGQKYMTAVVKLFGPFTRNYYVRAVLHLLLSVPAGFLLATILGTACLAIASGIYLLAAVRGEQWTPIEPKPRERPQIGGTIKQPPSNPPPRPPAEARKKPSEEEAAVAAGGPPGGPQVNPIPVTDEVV
From the text: (§1) The Nox4 activity of Nox4 inhibitors according to the invention may be tested for their activity in the inhibition or reduction of formation of reactive oxygen species (ROS) from oxygen in cell free assays. In order to fully characterise Nox4 inhibitors, Nox subunit-specific cell-free, membrane-based systems have been developed and specific recombinant proteins have been added to membranes heterologously over-expressing their specific iso form. Nox enzymes produce superoxide (O2.−) as primary product, however due to the high instability and reactivity of this molecule which dismutates naturally into hydrogen peroxide (H2O2), therefore, read-out techniques involving probes that do measure H2O2 were used (e.g. using Amplex Red as a probe in order to facilitate consistent and accurate measurements). The activity of the compounds is tested in the following cell free assay using the techniques described here below:
Transfected T-REx™-CHO cells (R718-07) purchased from Invitrogen and T-REx™-293 cell line expressing hNOX4 (hNOX4 T-REx™-293) (Serrander et al., 2007, Biochem. J., 406, 105-114) were cultured in […]. Both media were supplemented with 10% FBS, 2 mM glutamine, penicillin (100 U/ml) and streptomycin (100 μg/ml). Selection pressure was maintained by continuous inclusion of blasticidin (5 μg/ml), and/or G418 (0.25 mg/ml), and/or Hygromycin (0.25 mg/ml) and/or zeocin (0.025 mg/ml).
(§2) Human Nox1, Nox2, Nox4, and Nox5 expression were induced with Tetracycline (1 μg/ml) during 24 h prior to the membrane preparation Membranes from transfected cells overexpressing Nox1, Nox2, Nox4 or Nox5 were prepared as previously described in Palicz et al., 2001, J. Biol. Chem., 76, 3090-3097. After resuspension in sonication buffer (11% sucrose, 120 mM NaCl, 1 mM EGTA in PBS, pH 7.4 for Nox4- or NOX5-expressing cells) or in relax buffer (10 mM Pipes, 3 mM NaCl, 3.5 mM MgCl2, 0.1M KCl, pH 7.4), cells were broken by sonication and centrifuged (200 g, 10 min). The supernatant was layered onto a 17/40% (w/v) discontinuous sucrose gradient and centrifuged (150,000×g for 60 min). Membrane fractions were collected from the 17/40% interface and were stored at −80° C. Protein concentration was determined with the Bradford reagent.
(§3) Reactive Oxygen Species (ROS) production by membranes expressing either human Nox1, or human Nox2 or human Nox4 or human Nox5 or by xanthine/xanthine oxidase were measured using the Amplex Red (AR) method following a slightly modified version of the manufacturer's instruction manual (Invitrogen). Briefly, membranes or xanthine were incubated in PBS with Amplex Red, Horse Radish Peroxidase (HRP) and appropriated co-factors. ROS production was induced by addition of NADPH to NOX-expressing membrane or by addition of xanthine to xanthine oxidase. Non-specific signal was measured in the absence of membranes or in the absence of xanthine.
Antagonist activity of compounds was measured in the presence of increasing concentrations ranging from 1 nM to 100 μM. After an incubation of 20 min in a plate shaker and incubator (Titramax 1000, VWR) at 37° C. with weak agitation (300 rpm), ROS levels were measured for 10 min in a BMG Fluostar microplate reader with excitation and emission wavelengths of 544 nm and 590 nm respectively.
Data were analysed using Prism (GraphPad Software Inc., San Diego, Calif.). Ki values were calculated using the Cheng-Prusoff equation and represent the average of at least three individual experiments performed in triplicate (Table 1). Nox4 inhibition was compared to that measured for Simvastatin (Enzo Life Sciences, CAS Number 79902-63-9) using the method described in Example 1. Reactive Oxygen Species (ROS) production by membranes expressing human Nox4 was measured using the Amplex Red (AR).

[2] = target: T2, human Nox2 (Homo sapiens, UniProt P04839); experiment: ROS production by membranes expressing human Nox2, cell-free Amplex Red assay; type: biochemical; settings: cell-free membranes, Amplex Red; Cheng-Prusoff; average of at least three experiments in triplicate; read-out: Ki hNox2
T2 construct: host or cells: T-REx-CHO (hNOX2 T-REx-CHO), tetracycline-induced; membrane fraction
T2 sequence (P04839 2-570 limits assumed): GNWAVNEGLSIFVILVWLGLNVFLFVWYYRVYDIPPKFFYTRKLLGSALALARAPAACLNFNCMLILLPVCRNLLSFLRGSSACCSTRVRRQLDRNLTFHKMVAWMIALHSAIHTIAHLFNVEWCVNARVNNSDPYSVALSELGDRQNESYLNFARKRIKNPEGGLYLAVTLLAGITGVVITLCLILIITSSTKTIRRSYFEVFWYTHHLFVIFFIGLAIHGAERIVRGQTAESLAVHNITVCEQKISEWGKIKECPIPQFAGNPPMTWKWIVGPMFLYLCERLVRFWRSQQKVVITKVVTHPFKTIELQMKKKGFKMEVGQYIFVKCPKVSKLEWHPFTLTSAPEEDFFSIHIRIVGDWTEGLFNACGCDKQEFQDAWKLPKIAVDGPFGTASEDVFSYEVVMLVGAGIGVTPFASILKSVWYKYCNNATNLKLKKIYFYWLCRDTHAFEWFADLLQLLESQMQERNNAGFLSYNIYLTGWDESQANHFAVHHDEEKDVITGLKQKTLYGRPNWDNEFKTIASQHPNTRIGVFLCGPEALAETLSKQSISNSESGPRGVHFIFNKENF
T2 sequence (P13498 2-195 partner limits assumed): T1 sequence (P13498 2-195 partner limits assumed)
From the text: as §1
Human Nox1 (NM_007052.4), human NOX2 (NM_000397), and human NOX5 (NM_0245052244) cDNAs were cloned into the pcDNA5/TO (Invitrogen). Human p22 (NM_000101.2) was cloned into pcDNA3.1/Zeo (+) (Invitrogen), and human NOXA1 (AY255769.1) and human NOXO1 (AB097667) were cloned into the bi-cistronic pVITRO1-neo-mcs plasmid (Invivogen).
Cells were transfected by using the FuGENE 6 method. Cells stably expressing functional human Nox1 (hNOX1 T-REx™-CHO) were obtained by co-transfecting T-REx™-CHO cells with human Nox1, human p22, human NOXA1 and human NOXO1. Cells stably expressing functional human Nox2 (hNOX2 T-REx™-CHO) were obtained by co-transfecting T-REx™-CHO cells with human nox2, human p22 and human cofactors. Cells stably expressing functional human Nox5 (hNOX5 T-REx™-CHO) were obtained by transfecting T-REx™-CHO cells with human Nox5. Co-transfected cells were selected with the appropriate antibiotics for 10 days. For the selection, hygromycin and G418 were used at 2 mg/ml and zeocin at 0.1 mg/ml. For the establishment of each stably transfected cell line, a pool of antibiotic-resistant cells was generated. Cells were cloned by limiting dilution. Several clones were established and investigated for ROS production upon tetracycline-induced hNox expression using a cellular AR assay. The expression of NOXes was done with tetracycline (1 μg/ml) during 24 h prior to the assay.
as §2, §3
Antagonist activity of compounds was measured in the presence of increasing concentrations ranging from 1 nM to 100 μM. […]

| Structure (SMILES) | Ki [1] [nM] | Ki [2] [nM] |
| --- | --- | --- |
| COc1ccc(F)c(-c2c3c(=O)n(-c4ccccc4OC)[nH]c3cc(=O)n2Cc2ccn(C)n2)c1 [(13), 4-(2-fluoro-5-methoxyphenyl)-2-(2-methoxyphenyl)-5-[(1-methyl-1H-pyrazol-3-yl)methyl]-1H-pyrazolo[4,3-c]pyridine-3,6(2H,5H)-dione] | 80 | 985 |
| Cc1c2c(=O)n(-c3ccccc3Cl)[nH]c2cc(=O)n1Cc1cccnc1 [(15), 2-(2-chlorophenyl)-4-methyl-5-(pyridin-3-ylmethyl)-1H-pyrazolo[4,3-c]pyridine-3,6(2H,5H)-dione] | 83 | 907 |
| COc1ccc(-c2c3c(=O)n(-c4ccccc4Cl)[nH]c3cc(=O)n2Cc2ccn(C)n2)c(F)c1 [(4), 2-(2-chlorophenyl)-4-(2-fluoro-4-methoxyphenyl)-5-[(1-methyl-1H-pyrazol-3-yl)methyl]-1H-pyrazolo[4,3-c]pyridine-3,6(2H,5H)-dione] | 61 | 813 |
| O=c1c2c(-c3ccccc3F)n(Cc3cccnc3)c(=O)cc2[nH]n1-c1ccccc1Cl [(17), 2-(2-chlorophenyl)-4-(2-fluorophenyl)-5-(pyridin-3-ylmethyl)-1H-pyrazolo[4,3-c]pyridine-3,6(2H,5H)-dione] | 88 | 602 |
| COc1ccccc1-n1[nH]c2cc(=O)n(Cc3cccnc3)c(C)c2c1=O [(7), 2-(2-methoxyphenyl)-4-methyl-5-(pyridin-3-ylmethyl)-1H-pyrazolo[4,3-c]pyridine-3,6(2H,5H)-dione] | 72 | 1170 |
| COc1ccc(F)c(-c2c3c(=O)n(-c4ccccc4OC)[nH]c3cc(=O)n2Cc2cccnc2)c1 [(5), 4-(2-fluoro-5-methoxyphenyl)-2-(2-methoxyphenyl)-5-(pyridin-3-ylmethyl)-1H-pyrazolo[4,3-c]pyridine-3,6(2H,5H)-dione] | 63 | 730 |
| COc1ccccc1-n1[nH]c2cc(=O)n(Cc3cccnc3)c(-c3cc(Cl)ccc3F)c2c1=O [(14), 4-(5-chloro-2-fluorophenyl)-2-(2-methoxyphenyl)-5-(pyridin-3-ylmethyl)-1H-pyrazolo[4,3-c]pyridine-3,6(2H,5H)-dione] | 81 | 695 |

Next, values leading:

| Ki [1] [nM] | Ki [2] [nM] | Structure (SMILES) |
| --- | --- | --- |
| 96 | 555 | COc1ccc(-c2c3c(=O)n(-c4ccccc4Cl)[nH]c3cc(=O)n2Cc2cccnc2)c(F)c1 [(21), 2-(2-chlorophenyl)-4-(2-fluoro-4-methoxyphenyl)-5-(pyridin-3-ylmethyl)-1H-pyrazolo[4,3-c]pyridine-3,6(2H,5H)-dione] |
| 111 | 655 | O=c1c2c(-c3ccccc3F)n(Cc3ccncc3)c(=O)cc2[nH]n1-c1ccccc1Cl [(29), 2-(2-chlorophenyl)-4-(2-fluorophenyl)-5-(pyridin-4-ylmethyl)-1H-pyrazolo[4,3-c]pyridine-3,6(2H,5H)-dione] |
| 119 | 640 | O=c1c2c(-c3ccccc3F)n(Cc3ccccn3)c(=O)cc2[nH]n1-c1ccccc1Cl [(34), 2-(2-chlorophenyl)-4-(2-fluorophenyl)-5-(pyridin-2-ylmethyl)-1H-pyrazolo[4,3-c]pyridine-3,6(2H,5H)-dione] |
| 114 | 1830 | CNc1cccc(-c2c3c(=O)n(-c4ccccc4Cl)[nH]c3cc(=O)n2C)c1 [(32), 2-(2-chlorophenyl)-5-methyl-4-[3-(methylamino)phenyl]-1H-pyrazolo[4,3-c]pyridine-3,6(2H,5H)-dione] |
| 108 | 590 | COc1ccc(-c2c3c(=O)n(-c4ccccc4Cl)[nH]c3cc(=O)n2Cc2ccncc2)c(F)c1 [(27), 2-(2-chlorophenyl)-4-(2-fluoro-4-methoxyphenyl)-5-(pyridin-4-ylmethyl)-1H-pyrazolo[4,3-c]pyridine-3,6(2H,5H)-dione] |
| 98 | 925 | COc1ccc(-c2c3c(=O)n(-c4ccccc4OC)[nH]c3cc(=O)n2Cc2ccn(C)n2)c(F)c1 [(22), 4-(2-fluoro-4-methoxyphenyl)-2-(2-methoxyphenyl)-5-[(1-methyl-1H-pyrazol-3-yl)methyl]-1H-pyrazolo[4,3-c]pyridine-3,6(2H,5H)-dione] |
